From US20250243176A1, “(S)-1-(1-ACRYLOYLPIPERIDIN-3-YL)-2-FLUORO-5,6,7,8,9,10-HEXAHYDROCYCLO HEPTA[B]INDOLE-4-CARBOXAMIDE, AND RELATED CRYSTALLINE FORMS, COMPOSITIONS, AND METHODS THEREOF” (GB005, Inc., priority 2021, published 2025)
Values after ≈ are worked out from the molar mass of the structure shown.

Key:
TXK = biological target: T1, TXK (Homo sapiens, UniProt P42681); assay: Kinome scan, TXK; type: biochemical
T1 sequence (P42681 1-527): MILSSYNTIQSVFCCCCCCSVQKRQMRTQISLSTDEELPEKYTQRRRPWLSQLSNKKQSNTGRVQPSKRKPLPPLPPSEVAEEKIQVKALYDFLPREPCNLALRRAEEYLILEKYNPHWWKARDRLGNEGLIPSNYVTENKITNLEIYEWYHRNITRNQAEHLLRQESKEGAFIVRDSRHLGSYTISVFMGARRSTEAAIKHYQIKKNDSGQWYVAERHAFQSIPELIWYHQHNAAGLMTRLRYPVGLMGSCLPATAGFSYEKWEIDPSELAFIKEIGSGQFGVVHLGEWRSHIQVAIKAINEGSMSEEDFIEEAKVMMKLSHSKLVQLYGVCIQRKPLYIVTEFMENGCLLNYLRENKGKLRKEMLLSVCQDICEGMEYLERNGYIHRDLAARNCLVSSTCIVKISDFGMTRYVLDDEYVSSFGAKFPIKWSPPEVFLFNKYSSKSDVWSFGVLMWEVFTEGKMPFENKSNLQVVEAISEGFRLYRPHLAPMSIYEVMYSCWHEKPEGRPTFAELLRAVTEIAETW
Excerpt: (§1) (S)-1-(1-acryloylpiperidin-3-yl)-2-fluoro-5,6,7,8,9,10-hexahydrocyclohepta[b]indole-4-carboxamide, hereinafter referred to as “Compound 1”, is an orally available, selective, potent inhibitor of Bruton's tyrosine kinase (BTK), thereby providing potential treatment options in BTK-driven diseases. The potency of Compound 1 for BTK inhibition is in the nM range in both cell-free enzymatic and whole blood functional assays.

349 kinases = assay: Kinome scan, panel; type: biochemical; settings: kinome scan against 349 kinases
Excerpt: as §1

[1] = Solubility testing in vehicle, HPLC (Form III); type: physicochemical; settings: for solubility at 24 h / solubility at 72 h / solubility at 4 h: thermodynamic from solid
Procedure: In each of the following studies (Examples 6-10), the starting material was Compound 1 (free form, not salt) Form III. The material was a light yellow solid, comprising non-hygroscopic irregular shaped crystal with aggregation. The same analytical methods as described in Example 1 were employed.
Vehicle solutions were prepared as follows:
Solubility was determined at room temperature for 24 and 72 hours and at 45° C. for 4 and 24 hours. About 30/100 mg Compound 1 was added to vehicle (2 mL) and the mixture stirred at room temperature for 24 or 72 hours. The suspensions were filtered or centrifuged, and the filtrate analyzed by HPLC.

inhibition at 1 µM (TXK): > 50%
kinase selectivity (349 kinases): high kinase selectivity
Solubility ([1]; Capryol 90, RT, 72 h, pH 6.5, loading 50 mg/mL): >50000 µg/mL
Solubility ([1]; Cremophor HS 15, 45° C., 24 h, pH 7.5, loading 50 mg/mL): >50000 µg/mL
Solubility ([1]; Gelucire 44/14, 45° C., 24 h, pH 5.8, loading 50 mg/mL): >50000 µg/mL
Solubility ([1]; Gelucire 48/16, 45° C., 24 h, loading 50 mg/mL): >50000 µg/mL
Solubility ([1]; Labrasol, RT, 72 h, pH 6.4, loading 50 mg/mL): >50000 µg/mL
Solubility ([1]; PEG400/TPGS(3/1), 45° C., 24 h, pH 6.1, loading 50 mg/mL): >50000 µg/mL
Solubility ([1]; PEG400, RT, 72 h, pH 6.7, loading 50 mg/mL): >50000 µg/mL
Solubility ([1]; PG, RT, 72 h, pH 5.2, loading 50 mg/mL): >50000 µg/mL
solubility at 24 h ([1]; aqueous with cosolvent or surfactant or cyclodextrin, 1% SLS, RT, 24 h, pH 7.1, loading 15 mg/mL): 1200 µg/mL (≈ 3.13 mM)
solubility at 72 h ([1]; aqueous with cosolvent or surfactant or cyclodextrin, 1% SLS, RT, 72 h, pH 7.2, loading 15 mg/mL): 1150 µg/mL (≈ 3 mM)
solubility at 24 h ([1]; aqueous with cosolvent or surfactant or cyclodextrin, 1% Tween 80, RT, 24 h, pH 6.3, loading 15 mg/mL): 160 µg/mL (≈ 0.417 mM)
solubility at 72 h ([1]; aqueous with cosolvent or surfactant or cyclodextrin, 1% Tween 80, RT, 72 h, pH 6.3, loading 15 mg/mL): 170 µg/mL (≈ 0.443 mM)
solubility at 24 h ([1]; aqueous with cosolvent or surfactant or cyclodextrin, 1% polox188, RT, 24 h, pH 5.7, loading 15 mg/mL): 0.2 µg/mL (≈ 0.000522 mM)
solubility at 72 h ([1]; aqueous with cosolvent or surfactant or cyclodextrin, 1% polox188, RT, 72 h, pH 5.7, loading 15 mg/mL): 0.4 µg/mL (≈ 0.00104 mM)
solubility at 24 h ([1]; aqueous with cosolvent or surfactant or cyclodextrin, 1% polox407, RT, 24 h, pH 6.7, loading 15 mg/mL): 4 µg/mL (≈ 0.0104 mM)
solubility at 72 h ([1]; aqueous with cosolvent or surfactant or cyclodextrin, 1% polox407, RT, 72 h, pH 6.9, loading 15 mg/mL): 1 µg/mL (≈ 0.00261 mM)
solubility at 24 h ([1]; aqueous with cosolvent or surfactant or cyclodextrin, 5% PVP K30, RT, 24 h, pH 4.0, loading 15 mg/mL): 8 µg/mL (≈ 0.0209 mM)
solubility at 72 h ([1]; aqueous with cosolvent or surfactant or cyclodextrin, 5% PVP K30, RT, 72 h, pH 4.0, loading 15 mg/mL): 60 µg/mL (≈ 0.156 mM)
solubility at 24 h ([1]; aqueous with cosolvent or surfactant or cyclodextrin, 5% PVP VA64, RT, 24 h, pH 4.6, loading 15 mg/mL): 36 µg/mL (≈ 0.0939 mM)
solubility at 72 h ([1]; aqueous with cosolvent or surfactant or cyclodextrin, 5% PVP VA64, RT, 72 h, pH 4.6, loading 15 mg/mL): 42 µg/mL (≈ 0.11 mM)
solubility at 24 h ([1]; aqueous with cosolvent or surfactant or cyclodextrin, 10% HP-B-CD, RT, 24 h, pH 6.7, loading 15 mg/mL): 230 µg/mL (≈ 0.6 mM)
solubility at 72 h ([1]; aqueous with cosolvent or surfactant or cyclodextrin, 10% HP-B-CD, RT, 72 h, pH 6.7, loading 15 mg/mL): 220 µg/mL (≈ 0.574 mM)
solubility at 24 h ([1]; aqueous with cosolvent or surfactant or cyclodextrin, 10% SBE-B-CD, RT, 24 h, pH 6.5, loading 15 mg/mL): 1600 µg/mL (≈ 4.17 mM)
solubility at 72 h ([1]; aqueous with cosolvent or surfactant or cyclodextrin, 10% SBE-B-CD, RT, 72 h, pH 6.5, loading 15 mg/mL): 1610 µg/mL (≈ 4.2 mM)
solubility at 24 h ([1]; aqueous with cosolvent or surfactant or cyclodextrin, 10% TPGS, RT, 24 h, pH 5.3, loading 15 mg/mL): 2030 µg/mL (≈ 5.29 mM)
solubility at 72 h ([1]; aqueous with cosolvent or surfactant or cyclodextrin, 10% TPGS, RT, 72 h, pH 5.3, loading 15 mg/mL): 2040 µg/mL (≈ 5.32 mM)
solubility at 4 h ([1]; aqueous with cosolvent or surfactant or cyclodextrin, Cremophor RH40, 45° C., loading 50 mg/mL): 18600 µg/mL (≈ 48.5 mM)
solubility at 4 h ([1]; aqueous with cosolvent or surfactant or cyclodextrin, Gelucire 44/14, 45° C., pH 5.7, loading 50 mg/mL): 48100 µg/mL (≈ 125 mM)
solubility at 24 h ([1]; aqueous with cosolvent or surfactant or cyclodextrin, Gelucire 44/14, 45° C., 24 h, pH 5.8, loading 50 mg/mL): > 50000 µg/mL
solubility at 4 h ([1]; aqueous with cosolvent or surfactant or cyclodextrin, Gelucire 48/16, 45° C., loading 50 mg/mL): 44300 µg/mL (≈ 116 mM)
solubility at 24 h ([1]; aqueous with cosolvent or surfactant or cyclodextrin, Gelucire 48/16, 45° C., 24 h, loading 50 mg/mL): > 50000 µg/mL
solubility at 24 h ([1]; aqueous with cosolvent or surfactant or cyclodextrin, Labrasol, RT, 24 h, pH 6.9, loading 50 mg/mL): > 50000 µg/mL
solubility at 72 h ([1]; aqueous with cosolvent or surfactant or cyclodextrin, Labrasol, RT, 72 h, pH 6.4, loading 50 mg/mL): > 50000 µg/mL
solubility at 24 h ([1]; oil or lipid, Capryol 90, RT, 24 h, pH 6.8, loading 50 mg/mL): 47900 µg/mL (≈ 125 mM)
SMILES: C=CC(=O)N1CCC[C@@H](c2c(F)cc(C(N)=O)c3[nH]c4c(c23)CCCCC4)C1 [Compound 1, (S)-1-(1-acryloylpiperidin-3-yl)-2-fluoro-5,6,7,8,9,10-hexahydrocyclohepta[b]indole-4-carboxamide]
